Laboratory results: patent publication US10111854B2, “Synthesis and use of amine-containing flavonoids as potent anti-leishmanial agents” (The Hong Kong Polytechnic University, priority 2014, dated 2018)

Experiments:
[1] = tested on: L. amazonensis LV78 promastigotes; test: Anti-promastigote activity (MTS assay), L. amazonensis LV78; assay type: cell-based; details: Leishmania amazonensis, 72 hours
Protocol: (§1) Promastigotes of visceral L. donovani Ld39 and LdHU3, and cutaneous L. amazonensis LV78, L. braziliensis UA847 and L. major FV1 were employed in the study. All strains were cultured in Schneider's Drosophila Medium (Invitrogen), pH 6.9 supplemented with 10% (v/v) heat inactivated fetal bovine serum (Hyclone) with 4 mM glutamine (Sigma) and 25 μg/mL gentamicin solution (Invitrogen) at 27° C. for 4 days. RAW264.7 cells were cultured in supplemented DMEM media with 10% heat inactivated FBS and 100 U/mL penicillin and 100 μg/mL of streptomycin. They were maintained at 37° C. in a humidified atmosphere with 5% CO2. The cells were split constantly after a confluent monolayer has been formed. The cells were harvested by a cell scraper.
(§2) Anti-promastigote activity was determined according to previous procedures (1) by Cell Titer 96® Aqueous Assay (Promega) that employed a tetrazolium compound. Promastigotes were seeded into 96-well flat bottom microtiter plate at 1×10^5 cells per well in a final volume of 100 μL medium and incubated with a series of concentrations of synthetic FM. Parasites were incubated at 27° C. for 72 hours. After 72 hours of incubation, 10 μL of MTS:PMS mixture [MTS:2-(4,5-Dimethylthiazol-2-yl-)-5-[3-(carboxymethoxy)phenyl]-2-(4-sulfophenyl)-2H-tetrazolium); PMS: phenazine methosulfate both purchased from Sigma] was added into each well of microtiter plate. The plate was then incubated at 27° C. for 4 hours for color development. After 4 hours of incubation, the OD values were determined at 490 nm using automatic microtiter plate reader (Bio-Rad).
(§3) IC50 values of known antileishmanials and the amine-containing flavonoid monomers of the present invention to promastigotes (L. amazonensis LV78, L major FV1, L. donovani HU3, L. donovani 39), macrophages (Raw 264.7 and PEM) and mouse fibroblast (L929) were determined. The anti-promastigotes activities and cytotoxicity of the amine-containing flavonoid monomers of the invention are shown in Table 1.

[2] = tested on: L. major FV1 promastigotes; test: Anti-promastigote activity (MTS assay), L. major FV1; assay type: cell-based; details: Leishmania major, 72 hours
Protocol: as §1, §2, §3

[3] = tested on: L. donovani Ld39 promastigotes; test: Anti-promastigote activity (MTS assay), L. donovani Ld39; assay type: cell-based; details: Leishmania donovani, 72 hours
Protocol: as §1, §2, §3

[4] = Cytotoxicity, L929 fibroblasts; assay type: cell-based, mouse; details: mouse
Protocol: as §3

[5] = Cytotoxicity, peritoneal elicited macrophages (PEM); assay type: cell-based, mouse; details: mouse, Cytotoxicity IC50, PEM
Protocol: (§4) Mouse peritoneal elicited macrophages (PEM) were obtained as previously described (2). A round cover slip (12 mm in diameter) was placed into each well of 24-well culture plate. Mouse PEM were resuspended in supplemented DMEM media containing 10% heat inactivated FBS (v/v), 100 U/mL penicillin and 100 μg/mL streptomycin and seeded into each well at a cell density of 1×10^5 cells per 500 μL. Macrophages were allowed to attach overnight. Non-adherent cells were removed by gentle washing with un-supplemented DMEM media twice. Adherent macrophages were infected with late-log promastigotes at a parasite-to-macrophage ratio of 20:1 overnight at 37° C. with 5% CO2. Non-internalized promastigotes were removed by washing twice with un-supplemented DMEM media. Infected macrophages were further incubated in 500 μL of supplemented DMEM media in the presence or absence of FM for 72 hours at 37° C. After incubation, cover slips were stained with Giemsa and the percentage of macrophages infected and number of amastigotes per 100 macrophages was enumerated.
as §3

[6] = tested on: L. amazonensis LV78 amastigotes; test: Anti-amastigote activity in infected PEM, L. amazonensis LV78; assay type: cell-based; details: for IC50: Leishmania amazonensis, 72 h, infected PEM, 3 days, Giemsa; for Selective index (a)/(b): IC50 RAW264.7 over IC50 L. amazonensis LV78 amastigotes
Protocol: as §4
(§5) PEM cells were infected with late-log promastigotes (L. amazonensis LV78, L. braziliensis UA847, L. donovani HU3, L. donovani 39) for 24 hr at 37° C. Infected macrophages were then treated with various antileishmanials and incubated for 3 days at 37° C. After 3 days, the cover slips were stained with Giemsa. The number of amastigotes per 100 macrophages were determined and used to calculate IC50 values.

[7] = tested on: L. donovani Ld39 amastigotes (SSG-resistant); test: Anti-amastigote activity in infected PEM, L. donovani Ld39; assay type: cell-based; details: for IC50: Leishmania donovani, 72 h, infected PEM, 3 days, Giemsa, SSG-resistant
Protocol: as §4, §5

[8] = tested on: L. donovani HU3 promastigotes; test: Anti-promastigote activity (MTS assay), L. donovani HU3; assay type: cell-based; details: Leishmania donovani, 72 hours
Protocol: as §1, §2, §3

[9] = tested on: L. donovani HU3 amastigotes; test: Anti-amastigote activity in infected PEM, L. donovani HU3; assay type: cell-based; details: for IC50: Leishmania donovani, 72 h, infected PEM, 3 days, Giemsa, SSG-sensitive
Protocol: as §4, §5

[10] = tested on: promastigotes (L. amazonensis LV78, L major FV1, L. donovani HU3, L. donovani 39); test: Anti-promastigote activity, strain not given; assay type: cell-based; details: Leishmania amazonensis; strain not specified; read-out: IC50 against promastigotes
Protocol: as §2, §3

[11] = tested on: amastigotes (L. amazonensis LV78, L. braziliensis UA847, L. donovani HU3, L. donovani 39); test: Anti-amastigote activity, strain not given; assay type: cell-based; details: strain not specified; visceral and cutaneous Leishmania; read-out: IC50 against amastigotes
Protocol: as §4, §5

[12] = tested on: L. amazonensis and L. donovani HU3 promastigotes and amastigotes; test: Anti-promastigote and anti-amastigote activity of FM09, FM01 and FM05 derivatives; assay type: cell-based, Leishmania; details: stage and strain not specified; read-out: IC50, anti-promastigote and anti-amastigote activity (Table 3C)
Protocol: Derivatives of FM09, FM01 and FM05 were synthesized and their anti-promastigote and anti-amastigote activity were determined (Table 3C). Many amine-containing flavonoid monomers have IC50 less than 5 μM, including FM09a, FM09b, FM09c, FM09e, FM09h, FM09i, FM09k, FM09l, FM01b and FM05b.

Compound | IC50 [1] [µM] | IC50 [2] [µM] | IC50 [6] [µM] | IC50 [8] [µM] | IC50 [9] [µM] | IC50 [10] [µM] | IC50 [11] [µM] | IC50 [12] [µM] | IC50 [3] [µM] | IC50 [4] [µM] | IC50 [5] [µM] | Selective index (a)/(b), (a) measured using PEM ([6]; IC50 PEM over IC50 L. amazonensis LV78 amastigotes) | Selective index (a)/(c), (a) measured using PEM ([7]; IC50 PEM over IC50 L. donovani Ld39 amastigotes) | IC50 [7] [µM] | Selective index (a)/(b) [6] | Selective index (a)/(b) ([9]; IC50 RAW264.7 over IC50 L. donovani HU3 amastigotes) | Selective index (a)/(c) ([7]; IC50 RAW264.7 over IC50 L. donovani Ld39 amastigotes)
O=C(COc1ccc(-c2cc(=O)c3ccccc3o2)cc1)N1CCCN(Cc2ccncc2)CC1 [FM15, 2-(4-(2-oxo-2-(4-(pyridin-4-ylmethyl)-1,4-diazepan-1-yl)ethoxy)phenyl)-4H-chromen-4-one] | 4.8 ± 1.3 | 6.4 ± 1.7 | > 9 | 1.5 ± 0.3 | > 10 | < 5 | < 5 |  | 1.8 ± 0.7 | 14.9 ± 2.6 |  |  |  | 3.3 |  |  | 
O=c1cc(-c2ccc(OCCC3CCCCN3Cc3ccncc3)cc2)oc2ccccc12 (stereo not shown) [FM17, 2-(4-(2-(1-(pyridin-4-ylmethyl)piperidin-2-yl)ethoxy)phenyl)-4H-chromen-4-one] | 0.9 ± 0.3 | 2.1 ± 0.5 | 3.4 ± 0.9 | 0.4 ± 0.1 | > 10 | < 5 | < 5 |  | 1.5 ± 0.5 | > 100 |  |  |  | > 10 | >29.4 |  | 
O=c1cc(-c2ccc(OCC3CCN(Cc4ccncc4)CC3)cc2)oc2ccccc12 [FM13, 2-(4-((1-(pyridin-4-ylmethyl)piperidin-4-yl)methoxy)phenyl)-4H-chromen-4-one] | 3.5 ± 1.1 | 5.7 ± 3.1 | 2.5 ± 0.5 | 1.1 ± 0.6 | > 10 | < 5 | < 5 |  | 0.7 ± 0.2 | > 100 |  |  |  | 3.3 | >40 | >10 | >33
O=c1cc(-c2ccc(OC[C@@H]3CCCN3Cc3ccncc3)cc2)oc2ccccc12 [FM18, (S)-2-(4-((1-(pyridin-4-ylmethyl)pyrrolidin-2-yl)methoxy)phenyl)-4H-chromen-4-one] | 5.5 ± 1 | 4.9 ± 0.4 | 3.1 ± 0.1 | 1.9 ± 0.4 | > 9 | < 5 | < 5 |  | 2.7 ± 0.9 | 39.1 ± 2.5 |  |  |  | > 10 | 17.0 |  | 
Cc1cccc(CN(CCOCCOc2ccc(-c3cc(=O)c4ccccc4o3)cc2)Cc2cccc(C)n2)n1 [FM09e, 2-(4-(2-(2-(bis((6-methylpyridin-2-yl)methyl)amino)ethoxy)ethoxy)phenyl)-4H-chromen-4-one] | 7.41 ± 1.76 |  | 2.4 ± 0.37 | 4.9 ± 0.78 | 3.5 ± 0.48 |  |  | < 5 |  | 18.8 ± 0.95 |  |  |  |  |  |  | 
O=c1cc(-c2ccc(OCCOCCNCc3ccncc3)cc2)oc2ccccc12 [FM08, 2-(4-(2-(2-((pyridin-4-ylmethyl)amino)ethoxy)ethoxy)phenyl)-4H-chromen-4-one] | 8.3 ± 1.9 | 9.5 ± 1.2 | 6.7 ± 1.8 | 1.4 ± 0.4 | > 10 | < 5 |  |  | 2.7 ± 0.9 | > 33 |  |  |  | > 10 |  |  | 
COc1ccnc(CN(CCOCCOc2ccc(-c3cc(=O)c4ccccc4o3)cc2)Cc2nccc(OC)c2OC)c1OC [FM09a, 2-(4-(2-(2-(bis((3,4-dimethoxypyridin-2-yl)methyl)amino)ethoxy)ethoxy)phenyl)-4H-chromen-4-one] | 0.32 ± 0.05 |  | 0.56 ± 0.21 | 0.47 ± 0.07 |  |  |  | < 5 |  |  | 10.4 ± 0.64 |  |  |  |  |  | 

More lines, main results first:

IC50 [1] [µM] | IC50 [2] [µM] | IC50 [6] [µM] | IC50 [8] [µM] | IC50 [9] [µM] | IC50 [10] [µM] | IC50 [11] [µM] | IC50 [12] [µM] | Compound | IC50 [3] [µM] | IC50 [4] [µM] | IC50 [5] [µM] | Selective index (a)/(b), (a) measured using PEM ([6]; IC50 PEM over IC50 L. amazonensis LV78 amastigotes) | Selective index (a)/(c), (a) measured using PEM ([7]; IC50 PEM over IC50 L. donovani Ld39 amastigotes) | IC50 [7] [µM] | Selective index (a)/(b) [6] | Selective index (a)/(b) ([9]; IC50 RAW264.7 over IC50 L. donovani HU3 amastigotes) | Selective index (a)/(c) ([7]; IC50 RAW264.7 over IC50 L. donovani Ld39 amastigotes)
47.8 ± 18.7 | 22.6 ± 10.9 | 4.5 |  |  |  |  |  | O=c1cc(-c2ccc(OCCOCCN(CCOCCO)Cc3ccncc3)cc2)oc2ccccc12 [FM21, 2-(4-(2-(2-((2-(2-hydroxyethoxy)ethyl)(pyridin-4-ylmethyl)amino)ethoxy)ethoxy)phenyl)-4H-chromen-4-one] | 3.4 ± 0.9 | 24 | 58.5 ± 4.3 | 13 | 177 | 0.33 |  |  | 
4.6 ± 0.6 | 5.4 ± 1 | 4.7 ± 1 | 1.8 ± 0.3 | > 10 | < 5 | < 5 |  | CN(CCOc1ccc(-c2cc(=O)c3ccccc3o2)cc1)CCN(C)Cc1ccncc1 [FM02, 2-(4-(2-(methyl(2-(methyl(pyridin-4-ylmethyl)amino)ethyl)amino)ethoxy)phenyl)-4H-chromen-4-one] | 2.1 ± 0.6 | 22.1 ± 4 | 22 |  |  | 9.6 |  |  | 
1.4 ± 0.3 | 1.6 ± 0.6 | 1.9 ± 0.5 | 0.3 ± 0.1 | > 7 | < 5 | < 5 |  | O=c1cc(-c2ccc(OCCN3CCCN(Cc4ccncc4)CC3)cc2)oc2ccccc12 [FM14, 2-(4-(2-(4-(pyridin-4-ylmethyl)-1,4-diazepan-1-yl)ethoxy)phenyl)-4H-chromen-4-one] | 1.4 ± 0.9 | 10.6 |  |  |  | 8.4 | 11.4 |  | 
3.99 ± 0.99 |  | 2.42 ± 0.69 | 6.15 ± 1.47 | 3.5 ± 1.01 |  |  | < 5 | COc1ccnc(CN2CCN(CCOc3ccc(-c4cc(=O)c5ccccc5o4)cc3)CC2)c1OC [FM01b, 2-(4-(2-(4-((3,4-dimethoxypyridin-2-yl)methyl)piperazin-1-yl)ethoxy)phenyl)-4H-chromen-4-one] |  | 95.8 ± 4.25 |  |  |  |  |  |  | 
2 ± 0.3 | 3.6 ± 0.7 | 4.5 ± 1.8 | 2.2 ± 0.5 | > 10 | < 5 | < 5 |  | CN(C)CCOCCOc1ccc(-c2cc(=O)c3ccccc3o2)cc1 [FM06, 2-(4-(2-(2-(dimethylamino)ethoxy)ethoxy)phenyl)-4H-chromen-4-one] | 1.1 ± 0.1 | > 33 |  |  |  | > 10 |  |  | 
 |  |  |  |  |  |  | < 5 | O=c1cc(-c2ccc(OCCOCCN(Cc3cccnc3)Cc3cccnc3)cc2)oc2ccccc12 [FM09b, 2-(4-(2-(2-(bis(pyridin-3-ylmethyl)amino)ethoxy)ethoxy)phenyl)-4H-chromen-4-one] |  |  |  |  |  |  |  |  | 
2.8 ± 0.8 | 3.8 ± 0.7 | 3.7 ± 1.7 | 2.4 ± 0.5 | > 5 | < 5 | < 5 |  | O=c1cc(-c2ccc(OCCOCCNCc3ccccc3)cc2)oc2ccccc12 [FM04, 2-(4-(2-(2-(benzylamino)ethoxy)ethoxy)phenyl)-4H-chromen-4-one] | 2.6 ± 0.5 | > 33 | 20.3 |  |  | 6.8 |  |  | 
